Test results taken from PMC8395125, “Conjugation with Phospholipids as a Modification Increasing Anticancer Activity of Phenolic Acids in Metastatic Melanoma—In Vitro and In Silico Studies” (International Journal of Molecular Sciences, 2021).

How the values were obtained:
[1] = tested on: 451-Lu metastatic melanoma cells; experiment: MTT cell viability assay, 451-Lu; type: cell-based, human; conditions: 72 h, 50 to 400 μM; for IC50: Homo sapiens, 451Lu, MTT, mean ± SD; for toxicity / cell growth inhibition: 451-Lu
Source text: (§1) Three malignant melanoma cell lines (Me45, 1205-Lu and 451-Lu; obtained from the collection of the Centre of Oncology, Gliwice, Poland), neonatal human dermal fibroblast (NHDF; Lonza, Basel, Switzerland) and human colorectal adenocarcinoma cells (Caco-2; ATCC, Manassas, VA, USA) were used in the studies. The human malignant melanoma (Me45) cell line (derived from a lymph node metastasis of skin melanoma) was established in 1997 at the Radiobiology Department of the Centre of Oncology in Gliwice. 1205-Lu and 451-Lu cell lines were derived from human melanoma metastases to lungs of immunodeficient mice. The cells were cultivated in the medium DMEM-F12 (PAA, Warsaw, Poland) supplemented with 10% (for Me45, 1205-Lu and 451-Lu and NHDF) or 20% (Caco-2) of fetal bovine serum (FBS, Eurx, Gdansk, Poland). In addition, medium for Caco-2 cells contained Non-essential Amino Acid Solution (1×) (Sigma-Aldrich, Poznan, Poland). All cell lines were grown in the presence of 1% of antibiotics (10,000 μg/mL streptomycin and 10,000 units/mL penicillin; Sigma-Aldrich, Poznan, Poland), at 37 °C in humidified atmosphere with 5% CO2 under standard conditions. All experimental procedures were carried out in log-phase of cell growth. During some experiments melanoma cells were irradiated with X-rays at the dose of 2 Gy at the 24th hour of the incubation. Ionizing radiation was applied using a laboratory X-Cell 140 irradiator (Kubtec, Bridgeport, CT, USA).
(§2) Cells (Me45, 1205-Lu, 451-Lu and NHDF) were seeded on 96-well plates (20,000 cells/mL) 24 h before the experiment. One day later, fresh media containing tested compounds were added. The appropriate control, containing ethanol:DMSO (v/v 1:1) in fresh medium, was also prepared. The plates were incubated for a given time (72 h for Me45, 1205-Lu, 451-Lu and NHDF; 2 h for Caco-2) at 37 °C in humidified atmosphere with 5% CO2. After incubation, the medium was removed and cells were washed with physiological saline (PBS; PAA, Warsaw, Poland). In the next step, the cells were incubated with MTT (3-[4,5-dimethylthiazol-2-yl]-2,5-diphenyltetrazolium bromide, Sigma-Aldrich, Poznan, Poland) (solution of 0.5 mg/mL in RPMI 1640 without phenol red) for 2 h. Then, the MTT solution was removed and the formazan crystals were dissolved in the mixture isopropanol:HCl (v/v 1:0.04; both purchased from Sigma-Aldrich, Poznan, Poland). The absorbance of the obtained product was read at 570 nm using a microplate reader (Epoch; BioTek, Winooski, VT, USA). Survival rate was expressed as the percentage of cell survival and calculated from the ratio (A570 of treated cells/A570 of control cells) × 100%. The experiments were repeated three times.

[2] = tested on: 1205-Lu metastatic melanoma cells; experiment: MTT cell viability assay, 1205-Lu; type: cell-based, human; conditions: 72 h, 50 to 400 μM; for IC50: Homo sapiens, 1205Lu, MTT, mean ± SD; for toxicity / cell growth inhibition: 1205-Lu
Source text: as §1, §2

[3] = tested on: Me45 metastatic melanoma cells; experiment: MTT cell viability assay, Me45; type: cell-based, human; conditions: 72 h; for IC50: Homo sapiens, MTT, 50 to 400 μM, mean ± SD; for toxicity / cell growth inhibition: Me45, 50 to 400 μM
Source text: as §1, §2

[4] = tested on: normal skin fibroblasts NHDF; experiment: MTT cell viability assay, NHDF; type: cell-based, human; conditions: 72 h, 50 to 400 μM; for IC50: Homo sapiens, MTT, mean ± SD
Source text: as §1, §2

451-Lu melanoma cells = experiment: Intracellular ROS formation (DCFH-DA, flow cytometry), 451-Lu; type: cell-based, human; conditions: 72 h, DCF fluorescence
Method: (§3) The experiments on ROS content were performed after 72 h of incubation with the given compounds. The cells were harvested and centrifuged (1500 rpm, 3 min), washed with PBS and centrifuged again. The pellet was resuspended in culture medium and a cell-permeable non-fluorescent probe 2′,7′-dichlorofluorescin diacetate (DCFH-DA, Sigma-Aldrich, Poznan, Poland) at a final concentration of 30 µM was added. The samples were incubated in darkness for 30 min at 37 °C, then stored on ice till they were measured. DCFH-DA is hydrolyzed by cellular esterases into its polar form DCFH. Due to the intracellular ROS and other peroxides, DCFH undergoes oxidation and turns into highly fluorescent compond 2′,7′-dichlorofluorescein (DCF).
(§4) Cytometric analyses were performed immediately using an Aria III flow cytometer (Becton Dickinson, Franklin Lakes, NJ, USA) with FITC configuration (488 nm excitation; emission, LP mirror 503, BP filter 530/30) or with PE configuration (547 nm excitation; emission, 585 nm) and at least 10,000 cells were counted.

Me45 melanoma cells = experiment: Intracellular ROS formation (DCFH-DA, flow cytometry), Me45; type: cell-based, human; conditions: Me45, 72 h, DCF fluorescence
Method: as §3, §4

1205-Lu melanoma cells = experiment: Intracellular ROS formation (DCFH-DA, flow cytometry), 1205-Lu; type: cell-based, human; conditions: 72 h, DCF fluorescence
Method: as §3, §4

451-Lu cells [5] = experiment: Cell cycle analysis (PI, flow cytometry), 451-Lu; type: cell-based, human; conditions: 100 µM, 72 h, vs untreated control
Method: (§5) For cell cycle analysis, harvested cells were centrifuged (1500 rpm, 3 min). After supernatant removal, cells were fixed with a hypotonic buffer, containing PI at 100 µg/mL in PBS, 5 mg/l of citric acid, 1:9 Triton-X solution, 100 µg/mL of RNase in PBS (Sigma-Aldrich, Poznan, Poland). Probes were incubated for 20 min at room temperature in the dark, then stored on ice till they were measured.
as §4

Me45 cells [6] = experiment: Cell cycle analysis (PI, flow cytometry), Me45; type: cell-based, human; conditions: Me45, 100 µM, 72 h, vs untreated control
Method: as §5, §4

451-Lu cells [7] = experiment: Annexin-V/PI apoptosis assay, 451-Lu; type: cell-based, human; conditions: 100 µM, 72 h
Method: (§6) The studies of cell cycle, apoptosis and intracellular level of ROS were performed using the flow cytometry method. For the apoptosis assay, the cells were harvested and centrifuged (1500 rpm, 3 min). The apoptosis was measured using an Annexin-V apoptosis assay (BioLegend, San Diego, CA, USA). After supernatant removal, the cells were washed with PBS and centrifuged again. The pellets of cells were suspended in 50 μL of cold Annexin-V binding buffer and stained with FITC-labeled Annexin-V for 30 min at 37 °C in the dark. The Annexin-V binding buffer and propidium iodide (PI) solution (100 μg/mL; Sigma-Aldrich, Poznan, Poland) were then added and the samples were stored on ice till they were measured.
as §4

1205-Lu cells [8] = experiment: Annexin-V/PI apoptosis assay, 1205-Lu; type: cell-based, human; conditions: 100 µM; for fraction of cells in the early stage of apoptosis: 48 h of incubation, without irradiation; for fraction of necrotic cells / induction of apoptosis: 72 h
Method: as §6, §4

Me45 cells [9] = experiment: Annexin-V/PI apoptosis assay, Me45; type: cell-based, human; conditions: Me45, 100 µM, 72 h
Method: as §6, §4

colon cancer cells = tested on: colon cancer cells; design: method as in PMID 30104549; conditions: cited from earlier work
1205-Lu cells [10] = experiment: Pro-apoptotic activity in combination with ionizing radiation (2 Gy), 1205-Lu; type: cell-based, human; conditions: 100 µM, 48 h, X-rays 2 Gy at the 24th hour
Method: In the next step, pilot experiments on the pro-apoptotic activity of phenolic acid-PC conjugates in combination with ionizing radiation (IR) were performed. […] The time of incubation with a given compound was reduced to 48 h. X-rays at the dose of 2 Gy were applied at the 24th hour of incubation.
Three malignant melanoma cell lines (Me45, 1205-Lu and 451-Lu; obtained from the collection of the Centre of Oncology, Gliwice, Poland), neonatal human dermal fibroblast (NHDF; Lonza, Basel, Switzerland) and human colorectal adenocarcinoma cells (Caco-2; ATCC, Manassas, VA, USA) were used in the studies. […]
The studies of cell cycle, apoptosis and intracellular level of ROS were performed using the flow cytometry method. […] The apoptosis was measured using an Annexin-V apoptosis assay (BioLegend, San Diego, CA, USA). […] The Annexin-V binding buffer and propidium iodide (PI) solution (100 μg/mL; Sigma-Aldrich, Poznan, Poland) were then added and the samples were stored on ice till they were measured.
as §4

| Structure (SMILES) | IC50 [1] [µM] | IC50 [2] [µM] | IC50 [3] [µM] | IC50 [4] [µM] | cell cycle phase distribution (451-Lu cells [5]) | cell cycle phase distribution (Me45 cells [6]) | induction of apoptosis (451-Lu cells [7]) | induction of apoptosis (1205-Lu cells [8]) | induction of apoptosis (Me45 cells [9]) | further results |
| --- | --- | --- | --- | --- | --- | --- | --- | --- | --- | --- |
| COc1ccc(C(=O)OC[C@H](COP(=O)([O-])OCC[N+](C)(C)C)OC(=O)c2ccc(OC)c(OC)c2)cc1OC [3b, 1,2-diveratroyl-sn-glycero-3-phosphocholine] | 48.3 ± 5.5 | 153 ± 9.5 | 84.4 ± 14 | 168 ± 11.3 | increased the fraction of melanoma cells in the sub-G1 phase | increased the fraction of Me45 cells in the sub-G1 as well as G2/M phases | significant potency to induce apoptosis | significant potency to induce apoptosis | significant potency to induce apoptosis | reactive oxygen species formation (antioxidant activity, words) (451-Lu melanoma cells): highest ability to reduce ROS formation; reactive oxygen species formation (antioxidant activity, words) (Me45 melanoma cells): highest ability to reduce ROS formation; reactive oxygen species formation (antioxidant activity, words) (1205-Lu melanoma cells): highest ability to reduce ROS formation; fraction of necrotic cells (451-Lu cells [7]): significant increase in the fraction of necrotic cells; fraction of cells in the early stage of apoptosis (1205-Lu cells [8]): ~ 22%; fraction of necrotic cells (1205-Lu cells [8]): significant increase in the fraction of necrotic cells; overcoming of doxorubicin-resistance (colon cancer cells): partially overcome doxorubicin-resistance |
| CCCCCCCCCCCCCCCC(=O)OC[C@H](COP(=O)([O-])OCC[N+](C)(C)C)OC(=O)c1ccc(OC)cc1 [5a, 1-palmitoyl-2-anisoyl-sn-glycero-3-phosphocholine] | 97.7 ± 8 | 71.3 ± 7.7 | 122 ± 10 | 249 ± 20.9 | – | – | slightly increased | – | slightly increased | – |
| COc1ccc(C(=O)OC[C@H](COP(=O)([O-])OCC[N+](C)(C)C)OC(=O)c2ccc(OC)cc2)cc1 [3a, 1,2-dianisoyl-sn-glycero-3-phosphocholine] | 47.5 ± 2.7 | 82 ± 10.5 | 111 ± 4.5 | 238 ± 17.8 | increased the fraction of melanoma cells in the sub-G1 phase | – | significant potency to induce apoptosis | significant potency to induce apoptosis | significant potency to induce apoptosis | reactive oxygen species formation (antioxidant activity, words) (451-Lu melanoma cells): strongest antioxidant; reactive oxygen species formation (antioxidant activity, words) (Me45 melanoma cells): strongest antioxidant; reactive oxygen species formation (antioxidant activity, words) (1205-Lu melanoma cells): strongest antioxidant; fraction of necrotic cells (451-Lu cells [7]): significant increase in the fraction of necrotic cells; fraction of cells in the early stage of apoptosis (1205-Lu cells [8]): ~ 17%; fraction of necrotic cells (1205-Lu cells [8]): significant increase in the fraction of necrotic cells |
| COc1ccc(C(=O)O)cc1OC [1b, 3,4-dimethoxybenzoic acid, reference compound] | – | – | – | – | – | – | no ability to induce apoptosis | no ability to induce apoptosis | no ability to induce apoptosis | toxicity / cell growth inhibition [1]: non-toxic; toxicity / cell growth inhibition [2]: non-toxic; toxicity / cell growth inhibition [3]: non-toxic; toxicity / cell growth inhibition [4]: non-toxic |
| CCCCCCCCCCCCCCCC(=O)O[C@H](COC(=O)c1ccc(OC)c(OC)c1)COP(=O)([O-])OCC[N+](C)(C)C [8b, 1-veratroyl-2-palmitoyl-sn-glycero-3-phosphocholine] | 82.2 ± 14.3 | 73.2 ± 9.3 | 126 ± 3.7 | 150 ± 17.9 | – | Increased fraction of Me45 cells in G2/M phase | – | – | – | pro-apoptotic effect in combination with ionizing radiation (1205-Lu cells [10]): most effective combinations |
| CCCCCCCCCCCCCCCC(=O)OC[C@H](COP(=O)([O-])OCC[N+](C)(C)C)OC(=O)c1ccc(OC)c(OC)c1 [5b, 1-palmitoyl-2-veratroyl-sn-glycero-3-phosphocholine] | 137 ± 7.7 | 102 ± 4.1 | 109 ± 7.6 | 185 ± 13.7 | increased the fraction of melanoma cells in the sub-G1 phase | Increased fraction of Me45 cells in G2/M phase | – | – | significantly higher fractions of Me45 cells in the early and late stages of apoptosis | – |
| CCCCCCCCCCCCCCCC(=O)O[C@H](COC(=O)c1ccc(OC)cc1)COP(=O)([O-])OCC[N+](C)(C)C [8a, 1-anisoyl-2-palmitoyl-sn-glycero-3-phosphocholine] | 54.1 ± 6.7 | 62.2 ± 7.1 | 131 ± 9.9 | 198 ± 20.8 | – | – | – | – | – | pro-apoptotic effect in combination with ionizing radiation (1205-Lu cells [10]): most effective combinations |
| COc1ccc(C(=O)O)cc1 [1a, 4-methoxybenzoic acid, reference compound] | – | – | – | – | – | – | no ability to induce apoptosis | no ability to induce apoptosis | no ability to induce apoptosis | toxicity / cell growth inhibition [1]: non-toxic; toxicity / cell growth inhibition [2]: non-toxic; toxicity / cell growth inhibition [3]: non-toxic; toxicity / cell growth inhibition [4]: non-toxic |
